Data taken from patent US20250281676A1 (priority 2020, published 2025).

Tests used:
[1] = test system: carcinomas; settings: delivered with pH sensitive hydrogels; cited from earlier work
[2] = test system: tumor; settings: delivered by thermosensitive, biodegradable hydrogels; gradual release, local delivery to tumor site; cited from earlier work
[3] = Net charge and isoelectric point of peptide; assay type: physicochemical; settings: pH 7
Source text: The peptide may be purified. For example, the peptide may be lyophilized. […] Other peptides are within the scope of the disclosure.
Exemplary peptides having a charge of +5 to +9 include […](d)[…], […] (d)[…], and […] (d)[…]. In other embodiments, the purified peptide may be substantially neutral. […] Net charge may be selected by peptide design. Design of electrostatic charge in the peptide hydrogel may allow control of charge interaction with cell membrane and proteins.

Compound | tumor size compared to systemic delivery [1] | other results
O=c1[nH]cc(F)c(=O)[nH]1 [5-fluorouracil] | significant decrease in tumor size | –
COc1cccc2c1C(=O)c1c(O)c3c(c(O)c1C2=O)C[C@@](O)(C(=O)CO)C[C@@H]3O[C@H]1C[C@H](N)[C@H](O)[C@H](C)O1 [DOX, Doxorubicin] | – | treatment outcomes compared to systemic treatment modalities [2]: improved treatment outcomes
CN(C)C(=N)N=C(N)N [metformin] | significant decrease in tumor size | –
VEVSVSVEVdPPTEVSVEVEV-NH2 | – | net charge [3]: net negative charge
